The record followed here is US9687498B1, “Composition for preventing or treating muscle wasting-related disease and use thereof” (Samsung Electronics Co., Ltd., priority 2015, dated 2017).

Structures can show the parent of a compound that is named as a salt.

Common to all, as to assay type: cell-based, mouse
Test [1] concerns PGC-1 alpha 4 isoform. The test is described as follows: Real time PCR of PGC-1 alpha 4 isoform mRNA in differentiated C2C12 muscle cells. Conditions: 10 μM compound in 0.1% DMSO, about 24 hours, normalized to GAPDH, vs DMSO negative control. The procedure:
(§1) In detail, C2C12 cell line (mouse gastrocnemius muscle, ATCC® CRL-1772™) was seeded in a 10% FBS/DMEM culture medium. When the cells reached about 70% confluence in 5% CO2 incubator at 37° C., the culture medium was replaced by 2% FBS/DMEM, and further cultured for about 4 days to induce complete differentiation into muscle cells. The C2C12 cell line is a mouse myoblast cell line obtained through continuous culture of myoblasts cultured from the gastrocnemius muscle of C3H mice.
(§2) When the C2C12 cells were completely differentiated, the medium was removed, and 10 μM (in 0.1% DMSO) of active compound for screening was added to the cultured muscle cells, followed by incubation under conditions of 37° C. and 5% CO2 for about 24 hours. As the active compound for screening, a library of a total of 700 compounds (Selleck Chemicals) was used. Thereafter, the cultured muscle cells were washed with PBS to obtain muscle cells. As a negative control, muscle cells treated with DMSO (Sima-Aldrich), instead of the active compound for screening, were used. As a positive control, muscle cells treated with forskolin were used.
(§3) Total RNA was separated according to the manufacturer's protocol by adding a Trizol reagent (Invitrogen) to the obtained cells. cDNA was synthesized from the separated total RNA using reverse transcriptase. The mRNA levels of PGC-1 alpha 4 isoform and myostatin were quantified using a real time PCR (MyiQPCR instrument, BioRad), which is a device for measuring SYBR Green. The resulting amounts were then normalized to the amount of GAPDH mRNA.
(§4) After normalization of the values obtained from the amplification to GAPDH gene, relative mRNA expression levels of PGC-1 alpha 4 isoform and myostatin were quantified. The relative mRNA expression levels (Arbitrary Unit; AU) of PGC-1 alpha 4 isoform and myostatin thus quantified are shown in FIGS. 2A and 2B, respectively (*: p<0.05 vs. negative control).
Background: In qPCR the cycle at which signal appears reflects the starting amount.

Test [2] concerns myostatin. The test is described as follows: Real time PCR of myostatin mRNA in differentiated C2C12 muscle cells. The conditions noted are these: 10 μM compound in 0.1% DMSO, about 24 hours, normalized to GAPDH, vs DMSO negative control. The procedure: as §1, §2, §3, §4
Test [3] relates to C2C12 cells. The test is described as follows: Muscle fiber diameter of differentiated C2C12 muscle cells (microscope). Conditions: 100 μM compound, about 24 hours, vs DMSO negative control. The procedure: as §1
Muscle fiber-protecting effects of the compounds selected in 1. were examined by measuring the diameter of muscle fiber according to addition of the selected compounds.
As described in Example 1.1, C2C12 cells were completely differentiated to muscle cells. After removal of the medium, 4 ml of a fresh medium containing each 100 μM of isotretinoin (Roche), vismodegib (Genentech), or lincomycin hydrochloride (Sima-Aldrich) was added, and the cells were cultured in a 5% CO2 incubator at 37° C. for about 24 hours. As a negative control, muscle cells treated with DMSO (Sima-Aldrich), instead of the selected compounds, were used. As a positive control, muscle cells treated with forskolin were used.
Thereafter, the cultured cells were washed with PBS. Muscle fibers of the cells were photographed with a microscope (×200), and diameter (μm) of the muscle fiber was measured.

In the case of `CC1=C(/C=C/C(C)=C/C=C/C(C)=C\C(=O)O)C(C)(C)CCC1` [isotretinoin, (2Z,4E,6E,8E)-3,7-dimethyl-9-(2,6,6-trimethylcyclohex-1-en-1-yl)nona-2,4,6,8-tetraenoic acid], the “level (relative mRNA expression) of PGC-1 alpha 4 isoform compared to the negative control” value in test [1] was “increasing”. The “level (relative mRNA expression) of myostatin compared to the negative control” value in test [2] is on record as “decreasing”. The “muscle fiber diameter compared to the negative control” value in test [3] is “increased”.

As for `CCC[C@@H]1C[C@@H](C(=O)N[C@@H]([C@H]2O[C@H](SC)[C@H](O)[C@@H](O)[C@H]2O)[C@@H](C)O)N(C)C1` [lincomycin hydrochloride, (2S,4R)-N-[(1R,2R)-2-hydroxy-1-[(2R,3R,4S,5R,6R)-3,4,5-trihydroxy-6-(methylsulfanyl)oxan-2-yl]propyl]-1-methyl-4-propylpyrrolidine-2-carboxamide], the “level (relative mRNA expression) of PGC-1 alpha 4 isoform compared to the negative control” value in test [1] is listed as “increasing”. In addition, in test [2], the “level (relative mRNA expression) of myostatin compared to the negative control” value is “decreasing”. In addition, in test [3], the “muscle fiber diameter compared to the negative control” value is “increased”.

With `CS(=O)(=O)c1ccc(C(=O)Nc2ccc(Cl)c(-c3ccccn3)c2)c(Cl)c1` [vismodegib, 2-chloro-N-(4-chloro-3-pyridin-2-ylphenyl)-4-methylsulfonylbenzamide], the “level (relative mRNA expression) of PGC-1 alpha 4 isoform compared to the negative control” value in test [1] was “increasing”. Also, in test [2], the “level (relative mRNA expression) of myostatin compared to the negative control” value was “decreasing”. Also, the “muscle fiber diameter compared to the negative control” value in test [3] is on record as “increased”.
